Measurements reported in PubChem BioAssay AID2060513 (Molecular Pharmacology Branch, DTP, NCI, 2025).

Test system: 299254-011-R-J1-PDC complex spheroids viability
Assay: Anticancer human tumor 299254-011-R-J1-PDC patient-derived melanoma cell line growth inhibition [GQUAD]
Conditions: for IC50: curve of first compound; for viability, T/C: stronger effect = lower value
Method in brief: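 Multi-cell-type spheroids of tumor cells with HUVEC and mesenchymal stem cells, treated with drug combinations. Concentrations descend in half-log steps from near clinical Cmax, or from 10 microM where Cmax is unknown; viability read-out.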

[1] = second compound 0.0316 µM, first compound 0.0316 µM
[2] = second compound 0.0316 µM, first compound 0.1 µM
[3] = second compound 0.0316 µM, first compound 0.316 µM
[4] = second compound 0.0316 µM, first compound 1 µM
[5] = second compound 0.0316 µM, first compound 3.16 µM
[6] = second compound 0.0316 µM, first compound 10 µM
[7] = second compound 0.1 µM, first compound 0.0316 µM
[8] = second compound 0.1 µM, first compound 0.1 µM
[9] = second compound 0.1 µM, first compound 0.316 µM
[10] = second compound 0.1 µM, first compound 1 µM
[11] = second compound 0.1 µM, first compound 3.16 µM
[12] = second compound 0.1 µM, first compound 10 µM
[13] = second compound 0.316 µM, first compound 0.0316 µM
[14] = second compound 0.316 µM, first compound 0.1 µM
[15] = second compound 0.316 µM, first compound 0.316 µM
[16] = second compound 0.316 µM, first compound 1 µM
[17] = second compound 0.316 µM, first compound 3.16 µM
[18] = second compound 0.316 µM, first compound 10 µM
[19] = second compound 1 µM, first compound 0.0316 µM
[20] = second compound 1 µM, first compound 0.1 µM
[21] = second compound 1 µM, first compound 0.316 µM
[22] = second compound 1 µM, first compound 1 µM
[23] = second compound 1 µM, first compound 3.16 µM
[24] = second compound 1 µM, first compound 10 µM
[25] = second compound 3.16 µM, first compound 0.0316 µM
[26] = second compound 3.16 µM, first compound 0.1 µM
[27] = second compound 3.16 µM, first compound 0.316 µM
[28] = second compound 3.16 µM, first compound 1 µM
[29] = second compound 3.16 µM, first compound 3.16 µM
[30] = second compound 3.16 µM, first compound 10 µM
[31] = second compound 10 µM, first compound 0.0316 µM
[32] = second compound 10 µM, first compound 0.1 µM
[33] = second compound 10 µM, first compound 0.316 µM
[34] = second compound 10 µM, first compound 1 µM
[35] = second compound 10 µM, first compound 3.16 µM
[36] = second compound 10 µM, first compound 10 µM
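Note: spheroids exposed to the agents for seven days before readout.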
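Throughout, for viability, T/C: percent viability relative to DMSO vehicle control wells = 100%.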

Question: `C=CCn1c(=O)c2cnc(Nc3ccc(N4CCN(C)CC4)cc3)nc2n1-c1cccc(C(C)(C)O)n1` + CN(C)c1ccc(Nc2c3ccc(NC(=O)CCN4CCCC4)cc3nc3cc(NC(=O)CCN4CCCC4)ccc23)cc1 was tested. Which IC50 (second compound 0.0316 µM) did it give?
Answer: The IC50 was 0.999 µM.

Question: And the IC50 (second compound 0.1 µM)?
Answer: The IC50 was 1.79 µM.

Question: What about the IC50 (second compound 0.316 µM) of the same compound?
Answer: The IC50 was 1.75 µM.

Question: What about the IC50 (second compound 1 µM) of the same compound?
Answer: Its IC50 is 2.28 µM.

Question: And the IC50 (second compound 3.16 µM)?
Answer: Its IC50 is 1.97 µM.

Question: And the IC50 (second compound 10 µM)?
Answer: Its IC50 is 1.68 µM.

Question: And the viability, T/C [1]?
Answer: Its viability, T/C is 101%.

Question: What about the viability, T/C [2] of the same compound?
Answer: The viability, T/C was 106%.

Question: And the viability, T/C [3]?
Answer: The viability, T/C was 77.8%.

Question: What about the viability, T/C [4] of the same compound?
Answer: The viability, T/C was 49.7%.

Question: What about the viability, T/C [5] of the same compound?
Answer: Its viability, T/C is 46.8%.

Question: What about the viability, T/C [6] of the same compound?
Answer: The viability, T/C was 31.5%.

Question: And the viability, T/C [7]?
Answer: The viability, T/C was 88.2%.

Question: What about the viability, T/C [8] of the same compound?
Answer: The viability, T/C was 94.7%.

Question: And the viability, T/C [9]?
Answer: Its viability, T/C is 76.6%.

Question: And the viability, T/C [10]?
Answer: The viability, T/C was 69.6%.

Question: What about the viability, T/C [11] of the same compound?
Answer: Its viability, T/C is 30.8%.

Question: And the viability, T/C [12]?
Answer: Its viability, T/C is 27.3%.

Question: What about the viability, T/C [13] of the same compound?
Answer: The viability, T/C was 92.7%.

Question: What about the viability, T/C [14] of the same compound?
Answer: The viability, T/C was 81.2%.

Question: What about the viability, T/C [15] of the same compound?
Answer: Its viability, T/C is 95.9%.

Question: And the viability, T/C [16]?
Answer: The viability, T/C was 65.9%.

Question: What about the viability, T/C [17] of the same compound?
Answer: Its viability, T/C is 34.9%.

Question: And the viability, T/C [18]?
Answer: The viability, T/C was 31.5%.

Question: And the viability, T/C [19]?
Answer: Its viability, T/C is 120%.

Question: What about the viability, T/C [20] of the same compound?
Answer: Its viability, T/C is 99.5%.

Question: What about the viability, T/C [21] of the same compound?
Answer: Its viability, T/C is 91.9%.

Question: What about the viability, T/C [22] of the same compound?
Answer: Its viability, T/C is 71.1%.

Question: What about the viability, T/C [23] of the same compound?
Answer: The viability, T/C was 37.4%.

Question: What about the viability, T/C [24] of the same compound?
Answer: Its viability, T/C is 29.6%.

Question: What about the viability, T/C [25] of the same compound?
Answer: The viability, T/C was 92.4%.

Question: And the viability, T/C [26]?
Answer: Its viability, T/C is 94.5%.

Question: What about the viability, T/C [27] of the same compound?
Answer: Its viability, T/C is 119%.

Question: And the viability, T/C [28]?
Answer: Its viability, T/C is 75.2%.

Question: And the viability, T/C [29]?
Answer: Its viability, T/C is 36.2%.

Question: What about the viability, T/C [30] of the same compound?
Answer: The viability, T/C was 28.9%.

Question: What about the viability, T/C [31] of the same compound?
Answer: Its viability, T/C is 97.5%.

Question: And the viability, T/C [32]?
Answer: The viability, T/C was 115%.

Question: What about the viability, T/C [33] of the same compound?
Answer: Its viability, T/C is 92.7%.

Question: And the viability, T/C [34]?
Answer: The viability, T/C was 67.8%.

Question: What about the viability, T/C [35] of the same compound?
Answer: Its viability, T/C is 27.2%.

Question: And the viability, T/C [36]?
Answer: Its viability, T/C is 28.3%.

Question: Which results are given for `CC(C)(O)C1CCC(Nc2ccc3ncc(-c4cccc(C(F)(F)F)c4)n3n2)CC1` (centres undefined) + CN(C)c1ccc(Nc2c3ccc(NC(=O)CCN4CCCC4)cc3nc3cc(NC(=O)CCN4CCCC4)ccc23)cc1?
Answer: IC50 (second compound 0.0316 µM): > 10 µM; IC50 (second compound 0.1 µM): > 10 µM; IC50 (second compound 0.316 µM): > 10 µM; IC50 (second compound 1 µM): > 10 µM; IC50 (second compound 3.16 µM): > 10 µM; IC50 (second compound 10 µM): 2.73 µM; viability, T/C [1]: 107%; viability, T/C [2]: 117%; viability, T/C [3]: 130%; viability, T/C [4]: 98.6%; viability, T/C [5]: 95.1%; viability, T/C [6]: 92.2%; viability, T/C [7]: 97.2%; viability, T/C [8]: 94.7%; viability, T/C [9]: 97.8%; viability, T/C [10]: 94.5%; viability, T/C [11]: 94%; viability, T/C [12]: 121%; viability, T/C [13]: 103%; viability, T/C [14]: 92%; viability, T/C [15]: 101%; viability, T/C [16]: 89.5%; viability, T/C [17]: 85.1%; viability, T/C [18]: 133%; viability, T/C [19]: 89.7%; viability, T/C [20]: 103%; viability, T/C [21]: 88.6%; viability, T/C [22]: 107%; viability, T/C [23]: 82.8%; viability, T/C [24]: 100%; viability, T/C [25]: 91.5%; viability, T/C [26]: 93.9%; viability, T/C [27]: 117%; viability, T/C [28]: 112%; viability, T/C [29]: 65.5%; viability, T/C [30]: 84.2%; viability, T/C [31]: 105%; viability, T/C [32]: 103%; viability, T/C [33]: 103%; viability, T/C [34]: 111%; viability, T/C [35]: 27.6%; viability, T/C [36]: 56.4%
